# Reference: patent US20070078116A1, “Method of treatment of otitis externa” (Fairfield Clinical Trials, LLC, priority 2003, published 2007)
# Columns and labels:
# [1] = test system: Candida albicans (ATCC 90028); assay: Filter paper disk test on agar plates containing C. albicans; assay type: cell-based; conditions: 5 μL or 10 μL on paper disk, 37° C., 24-72 hours
# Description: (§1) Candida albicans (ATCC 90028) and Aspergillis fumigatus (ATCC 16424) were tested in vitro for the effect of antifungal compositions according to embodiments of the invention. Fungal cells were obtained from the American Type Culture Collection.
# (§2) C. Albicans yeast cells were grown in YM broth (Difco™ 0711-01) containing the following ingredients: 1% peptone, 1% yeast extract and 2% glucose. The cells were grown at 37° C., harvested by centrifugation, resuspended in the same medium and stored frozen at −80° C. The cells were used at a concentration of about 1×10^6 cells/mL. A. fumigatus was cultured on solid MPG containing 20 g/L malt extract (Difco™ 21860); 1 g/L Difco™ 211677); 20 g/L sucrose and 15 g/L Bacto-agar (Difco™ 140-07-04) in water, at 37° C. for 7 to 10 days. Conidia were harvested by flooding the medium with sterile water, filtered through glass wool to exclude hyphal fragments, washed by centrifugation (5000 xg for 10 minutes at 4° C., resuspended at about 1×10^6 conidia/mL in water and stored at −80° C. until used.
# (§3) For testing, A. fumigatus conidia and C. albicans cells were thawed. […]
# (§4) Samples (5 μL, 10 μL or 20 μL as indicated in the Figures) of liquid drug formulation were placed on sterile filter paper disks and the disks allowed to air dry 15-30 minutes at room temperature in a Class II biosafety hood. […] A portion of each sample was analyzed for potency. […]
# [2] = test system: Aspergillis fumigatus (ATCC 16424); assay: Filter paper disk test on agar plates containing A. fumigatus (zone of killing); assay type: cell-based; conditions: 5 μL or 10 μL on paper disk, 37° C., 24-72 hours
# Description: as §1, §2, §3, §4
smiles,measurement,setting,value
"Clc1ccc(COC(Cn2ccnc2)c2ccc(Cl)cc2Cl)c(Cl)c1 (centres unmarked) [Miconazole, miconazole]",killing of C. albicans (visual observation of plates),[1],highly active
same,killing of A. fumigatus (visual observation of plates),[2],highly active
